Read-outs that look alike come from different tables or passages of the source.
Tests used:
[1] = tested on: NCI-H358 cells (KRAS G12C mutant cell line); assay: Inhibition of NCI-H358 cell proliferation (CellTiter-Glo, 72 h); assay type: cell-based, human
Description: (§1) As a preferred embodiment of the present disclosure, the detection method of NCI-H358 cell proliferation inhibitory activity and Mia PaCa-2 cell proliferation inhibitory activity is as follows: through cell culture, adding different concentrations of compound solutions to the cultured cells, continuing the culture for a period of time and measuring the cell proliferation; • further, the method of cell culture is: adjusting the cells to a suitable cell concentration with complete medium and spreading the cell suspension in well plates for culture; preferably, the culture conditions are 37° C., 5% CO2 incubator overnight; preferably, the cell suspension is spread in 96-well plates, 48-well plates, 24-well plates, 12-well plates or 6-well plates, more preferably 96-well plates; preferably, the suitable cell concentration is 1500-4000 cells/well, with 90 μL of cell suspension added to each well; • further, the compound solution is prepared with DMSO and may be further diluted with medium; preferably, the compound solution has a concentration gradient starting from 100 μM at 4-fold dilution, more preferably starting from 30 μM at 4-fold dilution, most preferably starting from 10 μM at 4-fold dilution; • further, the volume of the compound solution or solvent added to each well is 1-10 μL, preferably 10 μL; • further, after adding the compound solution, the conditions for continuing the culture are 37° C., 5% CO2 incubator; preferably, the culture time is 24-72 h, more preferably 72 h; • further, the method for measuring cell proliferation is MTT, CCK8, CellTiter-Glo; preferably the method is CellTiter-Glo; • further, the cell proliferation is read using a microplate reader, more preferably a BioTek Synergy H1 microplate reader.
(§2) When NCI-H358 or Mia PaCa-2 cells were cultured to the appropriate fusion level, the NCI-H358 or Mia PaCa-2 cells were collected, and the cells were adjusted to the appropriate cell concentration using a complete medium, and the cell suspension was spread in a 96-well plate, 90 μL per well, and placed in a 37° C., 5% CO2 incubator overnight; and compound solutions of different concentrations were prepared using DMSO and culture medium; and a solvent control was set, the compound solution was added to a 96-well plate, 10 μL per well, at 37° C. in a 5% CO2 incubator for 72 hours; CellTiter-Glo solution was added thereto and the mixture was mixed well by shaking, incubated for 10 min in the dark, and read by BioTek Synergy H1 microplate reader.
(§3) The luminescence signal values were used to calculate the inhibition rate, the concentration and the inhibition rate were fitted to a nonlinear regression curve using Graphpad Prism software, then the IC50 value was obtained.

[2] = tested on: Mia PaCa-2 cells (KRAS G12C mutant cell line); assay: Inhibition of Mia PaCa-2 cell proliferation (CellTiter-Glo, 72 h); assay type: cell-based, human
Description: as §1, §2, §3

human KRAS G12C protein = target: T1, human KRAS G12C protein (Homo sapiens, UniProt P01116, G12C); assay: Thermal shift: melting temperature of KRAS G12C protein; assay type: binding; conditions: for Tm (° C.): KRAS G12C protein 5.37 μM with compound 10 μM, 1 hour incubation; for ΔTm at 10 µM / ΔTm (° C.): compound 10 μM, Tm minus Tm of DMSO solvent control
T1 construct: purchased Beijing SinoBiological Co., Ltd. 12259-H07E2
Protocol: A solution containing […] (pH 7.5), 1 mM DTT, 5×SYPRO Orange and 150 mM NaCl was prepared as the experimental buffer, and a final concentration of 5.37 μM human KRAS G12C protein was added thereto. […] After incubating at room temperature in the dark for 1 hour, the PCR tube was put into the PCR instrument, QuantStudio Software v1.3 was opened, and the melting temperature of KRAS G12C protein in different treatment groups was detected by melt curve function (heating from 25° C. to 95° C., 0.03° C./s). The experimental data file of PCR instrument was imported into thermal shift software, and the melting temperature (Tm) of each treatment group was obtained, and the change value of melting temperature (Δ Tm) was obtained by subtracting the Tm of DMSO solvent control group.

Row | SMILES | IC50 ([1]; Homo sapiens) [nM] | IC50 ([2]; Homo sapiens) [nM] | Tm (° C.) (human KRAS G12C protein) [°C] | ΔTm at 10 µM (human KRAS G12C protein) [°C] | IC50 [1] [nM] | IC50 [2] [nM] | ΔTm (° C.) (human KRAS G12C protein) [°C]
1 | C=CC(=O)N1CCN(c2nc(=O)n(-c3c(C)ccnc3C(C)C)c3nc(-c4c(F)cccc4SC)c(F)cc23)[C@@H](C)C1 [Embodiment 75, (S)-4-(4-acryloyl-2-methylpiperazin-1-yl)-6-fluoro-7-(2-fluoro-6-(methylthio)phenyl)-1-(2-isopropyl-4-methylpyridin-3-yl) pyrido[2,3-d]pyrimidin-2 (1H)-one] | 24 | 34 | 61.2 | 10.6 |  |  | 
2 | C=CC(=O)N1CCN(c2nc(=O)n(-c3c(SC)ccnc3C(C)C)c3nc(-c4c(N)ccc(Cl)c4F)c(Cl)cc23)[C@@H](C)C1 [Embodiment 150, 4-((S)-4-acryloyl-2-methylpiperazin-1-yl)-7-(6-amino-3-chloro-2-fluorophenyl)-6-chloro-1-(2-isopropyl-4-(methylthio)pyridin-3-yl) pyrido [2,3-d] pyrimidin-2 (1H)-one] | 5.4 | 8.6 | 60.2 | 13.4 |  |  | 
3 | C=CC(=O)N1C[C@H](C)N(c2nc(=O)n(-c3c(SC)ccnc3C(C)C)c3nc(-c4c(O)cccc4F)c(Cl)cc23)C[C@H]1C [Embodiment 166, 4-((2S, 5R)-4-acryloyl-2,5-dimethylpiperazin-1-yl)-6-chloro-7-(2-fluoro-6-hydroxyphenyl)-1-(2-isopropyl-4-(methylthio)pyridin-3-yl) pyrido [2,3-d] pyrimidin-2 (1H)-one] | 16 | 23 |  |  |  |  | 
4 | C=CC(=O)N1CCN(c2nc(=O)n(-c3c(C)ccnc3C(C)C)c3nc(-c4c(F)cccc4SC)c(F)cc23)[C@@H](C)C1 (single isomer, unassigned) [Embodiment 75-1] | 25 | 36 |  |  |  |  | 
5 | C=CC(=O)N1CCN(c2nc(=O)n(-c3c(C)ccnc3CC(C)C)c3nc(-c4c(F)cccc4SCC)c(F)cc23)[C@@H](C)C1 [Embodiment 118] |  |  | 59.0 |  | 89 | 82 | 8.4
6 | C=CC(=O)N1CCN(c2nc(=O)n(-c3c(S(C)(=O)=O)ccnc3C(C)C)c3nc(-c4c(O)cccc4F)c(F)cc23)[C@@H](C)C1 [Embodiment 133, 4-((S)-4-acryloyl-2-methylpiperazin-1-yl)-6-fluoro-7-(2-fluoro-6-hydroxyphenyl)-1-(2-isopropyl-4-(methylsulfonyl)pyridin-3-yl) pyrido [2,3-d] pyrimidin-2 (1H)-one] | 25 | 46 |  |  |  |  | 
7 | C=CC(=O)N1C[C@H](C)N(c2nc(=O)n(-c3c(SC)ccnc3C(C)C)c3nc(-c4c(N)ccc(Cl)c4F)c(Cl)cc23)C[C@H]1C [Embodiment 165, 4-((2S, 5R)-4-acryloyl-2,5-dimethylpiperazin-1-yl)-7-(6-amino-3-chloro-2-fluorophenyl)-6-chloro-1-(2-isopropyl-4-(methylthio)pyridin-3-yl) pyrido [2,3-d] pyrimidin-2 (1H)-one] | 5.9 | 7.6 | 58.0 | 11 |  |  | 
8 | C=CC(=O)N1CCN(c2nc(=O)n(-c3c(SC)ccnc3C(C)C)c3nc(-c4c(O)cccc4F)c(Cl)cc23)[C@@H](C)C1 [Embodiment 130] |  |  | 61.5 |  | 14 | 41 | 10.9
9 | C=CC(=O)N1CCN(c2nc(=O)n(-c3c(SC)ccnc3C(C)C)c3nc(-c4c(O)cccc4F)c(F)cc23)[C@@H](C)C1 (single isomer, unassigned) [Embodiment 60-1] | 28 | 55 |  |  |  |  | 
10 | C=CC(=O)N1CCN(c2nc(=O)n(-c3c(C)ccnc3C(C)C)c3nc(-c4c(F)cccc4S(C)(=O)=O)c(F)cc23)[C@@H](C)C1 [Embodiment 77, (S)-4-(4-acryloyl-2-methylpiperazin-1-yl)-6-fluoro-1-(2-isopropyl-4-methylpyridin-3-yl)-7-(2-(methylsulfonyl-6-fluoro)phenyl) pyrido [2,3-d] pyrimidin-2 (1H)-one] | 117 | 120 | 60.4 | 9.8 |  |  | 

Next, values leading:

Row | IC50 ([1]; Homo sapiens) [nM] | IC50 ([2]; Homo sapiens) [nM] | Tm (° C.) (human KRAS G12C protein) [°C] | ΔTm at 10 µM (human KRAS G12C protein) [°C] | IC50 [1] [nM] | IC50 [2] [nM] | ΔTm (° C.) (human KRAS G12C protein) [°C] | SMILES
11 | 45 | 91 | 60.0 | 11.4 |  |  |  | C=CC(=O)N1CCN(c2nc(=O)n(-c3c(SC)cc(C)nc3C(C)C)c3nc(-c4c(O)cccc4F)c(F)cc23)[C@@H](C)C1 [Embodiment 152, 4-((S)-4-acryloyl-2-methylpiperazin-1-yl)-6-fluoro-7-(2-fluoro-6-hydroxyphenyl)-1-(2-isopropyl-6-methyl-4-(methylthio)pyridin-3-yl) pyrido [2,3-d] pyrimidin-2 (1H)-one]
12 |  |  |  |  | 79 | 68 |  | C=CC(=O)N1CCN(c2nc(=O)n(-c3c(SC)ccnc3C(C)C)c3nc(-c4c(F)cccc4F)c(F)cc23)[C@@H](C)C1 [Embodiment 169, (S)-4-(4-acryloyl-2-methylpiperazin-1-yl)-7-(2,6-difluorophenyl)-6-fluoro-1-(2-isopropyl-4-(methylthio)pyridin-3-yl) pyrido [2,3-d] pyrimidin-2 (1H)-one]
13 | 32 | 16 |  |  |  |  |  | C=CC(=O)N1CCN(c2nc(=O)n(-c3c(SC)ccnc3C(C)C)c3nc(-c4c(N)c(Cl)cc(Cl)c4F)c(Cl)cc23)[C@@H](C)C1 [Embodiment 191, 4-((s)-4-acryloyl-2-methylpiperazine-1-yl)-7-(2-amino-3,5-dichloro-6-fluorophenyl)-6-chloro-1-(2-isopropyl-4-(methylthio)pyridin-3-yl) pyrido [2,3-d] pyrimidin-2 (1H)-one]
14 | 39 | 59 |  |  |  |  |  | C=CC(=O)N1CCN(c2nc(=O)n(-c3c(SC)ccnc3C(C)C)c3nc(-c4c(N)ccc(Cl)c4F)c(F)cc23)[C@@H](C)C1 [Embodiment 151, 4-((S)-4-acryloyl-2-methylpiperazin-1-yl)-7-(6-amino-3-chloro-2-fluorophenyl)-6-fluoro-1-(2-isopropyl-4-(methylthio)pyridin-3-yl)pyrido[2,3-d]pyrimidin-2(1H)-one]
15 | 29 | 13 |  |  |  |  |  | C=CC(=O)N1CCN(c2nc(=O)n(-c3c([S+](C)[O-])ccnc3C(C)C)c3nc(-c4c(N)c(Cl)cc(Cl)c4F)c(Cl)cc23)[C@@H](C)C1 (stereo partly drawn) [Embodiment 192, 4-((S)-4-acryloyl-2-methylpiperazin-1-yl)-7-(2-amino-3,5-dichloro-6-fluorophenyl)-6-chloro-1-(2-isopropyl-4-(methylsulfinyl)pyridin-3-yl) pyrido [2,3-d] pyrimidin-2 (1H)-one]
16 |  |  | 59.4 |  | 67 | 104 | 8.8 | C=CC(=O)N1CCN(c2nc(=O)n(-c3c(C)ccnc3C(C)C)c3nc(-c4ccccc4SC)c(F)cc23)[C@@H](C)C1 [Embodiment 138]
17 | 24 | 26 | 60.9 | 11.1 |  |  |  | C=CC(=O)N1CCN(c2nc(=O)n(-c3c(S(C)(=O)=O)ccnc3C(C)C)c3nc(-c4c(O)cccc4F)c(Cl)cc23)[C@@H](C)C1 [Embodiment 155, 4-((S)-4-acryloyl-2-methylpiperazin-1-yl)-6-chloro-7-(2-fluoro-6-hydroxyphenyl)-1-(2-isopropyl-4-(methylsulfonyl)pyridin-3-yl) pyrido [2,3-d] pyrimidin-2 (1H)-one]
